Laboratory results: patent publication US10107817B2, “Oligopeptide specific to ovarian cancer, polynucleotide for encoding oligopeptide, test kit for detecting ovarian cancer and method for detecting ovarian cancer” (NATIONAL TSING HUA UNIVERSITY, priority 2016, dated 2018)

Columns and labels:
[1] = test system: ovarian clear cell carcinoma tissue section; experiment: Binding of the FAM-labelled oligopeptide to ovarian cancer tissue sections, fluorescence microscopy; details: 60 rpm, 60 minutes, room temperature, FIG. 2
Excerpt: (§1) In subsequent examples, the oligopeptide of the present disclosure is used to detect whether the sample has the oligopeptide-cancer cell complex. The oligopeptide consisted of the amino acid sequence of SEQ ID NO: 1 is chemically synthesized and modified a green fluorescence (FAM) at N-terminus in subsequent examples.
(§2) The sample uses in this example is the ovarian cancer tissue including an ovarian serous tumor tissue section, an ovarian mucinous tumor tissue section and an ovarian clear cell carcinoma tissue section. Besides, a normal ovarian tissue section is used as a control. The oligopeptide modified with the green fluorescence is respectively mixed with different groups of the sample at 60 rpm for 60 minutes at room temperature. The samples are washed several times with PBS containing 1% BSA. Then the sample is observed under a fluorescence microscopy, wherein the green fluorescent signal represents that the oligopeptide-cancer cell complex is presented in the sample.

[2] = test system: ovarian mucinous tumor tissue section; experiment: as above; details: 60 rpm, 60 minutes, room temperature, FIG. 2
Excerpt: as §1, §2

[3] = test system: ovarian serous tumor tissue section; experiment: as above; details: 60 rpm, 60 minutes, room temperature, FIG. 2
Excerpt: as §1, §2

[4] = test system: normal ovarian tissue section; experiment: Binding of the FAM-labelled oligopeptide to control tissue section, fluorescence microscopy; details: 60 rpm, 60 minutes, room temperature, FIG. 2
Excerpt: as §1, §2

[5] = test system: OVCAR3 cell; experiment: Binding of the FAM-labelled oligopeptide to ovarian cancer cells, fluorescence microscopy; parameters: species or system human; details: 12-well plate, 1×10^5 cells/well, 60 rpm, 60 minutes, room temperature, FIG. 3
Excerpt: as §1
(§3) The sample uses in this example is the ovarian cancer cell, wherein the ovarian cancer cell is OVCAR3 cell (a human serous epithelial ovarian cancer cell line). Besides, a normal cervical epithelial cell is used as the control. The OVCAR3 cell and the normal cervical epithelial cell are cultured and stored in Department of Obstetrics and Gynecology of National Cheng Kung University Hospital. The OVCAR3 cell and the normal cervical epithelial cell are respectively seeded in a 12-well plate with 1×10^5 cells/well and then maintained at 37° C. in a humidified atmosphere of 5% CO2 until the cells are adhered in the next day. The oligopeptide modified with the green fluorescence is respectively mixed with different groups of the sample at 60 rpm for 60 minutes at room temperature. The sample is washed several times with the PBS containing 1% BSA. Then the sample is observed under a fluorescence microscopy, wherein the green fluorescent signal represents that the oligopeptide-cancer cell complex is presented in the sample.

[6] = test system: normal cervical epithelial cell; experiment: Binding of the FAM-labelled oligopeptide to control cells, fluorescence microscopy; details: 12-well plate, 1×10^5 cells/well, 60 rpm, 60 minutes, room temperature, FIG. 3
Excerpt: as §1, §3

Substance: oligopeptide of the present disclosure: oligopeptide consisted of the amino acid sequence of SEQ ID NO: 1, chemically synthesized, specific to ovarian cancer (KRLTPLSPDHYD)
- green fluorescent signal (oligopeptide-cancer cell complex) [1]: green fluorescent signal can be detected
- green fluorescent signal (oligopeptide-cancer cell complex) [2]: green fluorescent signal can be detected
- green fluorescent signal (oligopeptide-cancer cell complex) [3]: green fluorescent signal can be detected
- green fluorescent signal (oligopeptide-cancer cell complex) [4]: no significant green fluorescent signal detected
- FAM signal (oligopeptide-cancer cell complex) [5]: FAM signal can be detected
- FAM signal (oligopeptide-cancer cell complex) [6]: no significant FAM signal detected
